Measured values from publication PMC6211316, “Synthesis and biological evaluation of 3-arylcoumarin derivatives as potential anti-diabetic agents” (Journal of Enzyme Inhibition and Medicinal Chemistry, 2018).

Columns and labels:
[1] = hydroxyl radical scavenging; settings: mean ± SD (n = 3), read-out: OH IC50 Value
Outline: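 Fenton system of H2O2 (0.03%), FeSO4 (2 mmol/L) and salicylic acid (10 mmol/L) with compound solutions (0.4–2.0 mg/mL), incubated 30 min at 37 °C. Absorbance read at 510 nm. % OH scavenging = [A0−(A1−A2)]/A0×100, with A2 a sample blank using ethanol in place of salicylic acid.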

[2] = system: STZ-induced diabetic mice; assay: Daily treatment for 16 days in STZ-induced diabetic mice; assay type: in vivo
Method: Thereafter, the target compounds 11, 17, 35, and glibenclamide were administered once (9 a.m.) on a daily basis, for a period of 16 days, to STZ-induced diabetic mice which were divided into five groups (A-E). A six group of normal mice (Group F) was used as a control. Groups E (diabetic control) and F received vehicle (0.05% Tween-80 in saline solution) per os for 16 days. Group A received glibenclamide (10 mg/kg of bw daily). Groups B–D received different treatments: B, compound 11 (30 mg/kg of bw daily); C, compound 17 (30 mg/kg of bw daily); D, compound 35 (30 mg/kg of bw daily). All tested materials were suspended in the same vehicle and administered per os daily for 16 days. The animals were housed under standard laboratory conditions and maintained with free access to water and food during all the experiment. Blood glucose concentration on animals of diabetic (Groups A–E) and control group (Group F) was estimated at days 1, 4, 7, 10, 13, and 16. The bw of the animals were measured concomitantly to the blood glucose analyses. All experiments were carried out using six animals per group.

STZ-diabetic mice = assay: Acute hypoglycemic assay in STZ-diabetic mice; assay type: in vivo; settings: for highest anti-hyperglycemic effect: STZ-diabetic mice; for Blood glucose concentration / % Variation of glycemia: STZ-diabetics mice
Outline: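 Mice made diabetic by single i.p. STZ 110 mg/kg in citrate buffer pH 4.5; blood glucose >11 mM after 7 days required. After 12 h fast, compounds at 10, 30, 100 mg/kg given intragastrically in 0.05% Tween-80/saline; blood glucose read at 0, 1.5, 3, 5, 7, 9 h post-dose.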

α-Glucosidase = target: T1, α-Glucosidase (Saccharomyces cerevisiae, UniProt P53341); assay: biochemical; assay type: biochemical
T1 construct: purchased Sigma Aldrich G0660-750UN
Outline: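 Absorbance at 405 nm of released p-nitrophenol gave % inhibition, corrected for blank and sample-blank wells, and IC50 values, all in triplicate. Reactions combined yeast enzyme, PNPG and test compound in pH 6.8 phosphate buffer (100 mM) at 37 °C for 20 min following a 10-min preincubation, ended with Na2CO3.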

T1 sequence (P53341 whole entry): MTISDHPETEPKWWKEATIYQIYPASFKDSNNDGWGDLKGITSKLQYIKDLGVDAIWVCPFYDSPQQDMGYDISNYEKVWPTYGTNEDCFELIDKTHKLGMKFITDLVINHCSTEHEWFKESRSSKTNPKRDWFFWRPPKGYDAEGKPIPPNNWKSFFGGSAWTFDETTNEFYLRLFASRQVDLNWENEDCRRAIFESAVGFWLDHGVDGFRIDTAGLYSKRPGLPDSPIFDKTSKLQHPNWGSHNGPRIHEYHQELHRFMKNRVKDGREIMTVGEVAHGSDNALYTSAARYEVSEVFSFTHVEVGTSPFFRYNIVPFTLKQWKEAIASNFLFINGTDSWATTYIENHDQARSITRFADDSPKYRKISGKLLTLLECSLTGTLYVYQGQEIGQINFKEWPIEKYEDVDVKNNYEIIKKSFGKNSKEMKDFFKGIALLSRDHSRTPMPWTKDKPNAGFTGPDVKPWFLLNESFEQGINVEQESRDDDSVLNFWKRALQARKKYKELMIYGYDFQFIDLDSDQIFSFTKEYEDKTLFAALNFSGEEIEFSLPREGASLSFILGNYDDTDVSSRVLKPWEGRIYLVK

For `COc1ccc(-c2cc3c(O)cc(O)cc3oc2=O)cc1` [Compound 35, 5,7-Dihydroxy-3-(4-methoxyphenyl)-coumarin], the IC50 [1] was 270 ± 41.6 µM, the “bw loss in hyperglycemic mice” value ([2]; 30 mg/kg of bw daily per os, 16 days) was “prevented bw loss” and the “blood glucose levels at the end of the experiment” value ([2]; 30 mg/kg of bw daily, 16 days) was “restored blood glucose levels to near normal values”. The “long-term anti-hyperglycemic effect (blood glucose levels)” value ([2]; 30 mg/kg of bw oral, once a day, for 16 days) was “induced obviously anti-hyperglycemic effect”, the hypoglycemic effect (STZ-diabetic mice; STZ-diabetic animals, 30 mg/kg of bw, started from 3 h and persisted throughout the experiment) was > 50% and the highest anti-hyperglycemic effect (STZ-diabetic mice; 10 mg/kg, at 7 h) was ~73.66%. For the same molecule, the highest anti-hyperglycemic effect (STZ-diabetic mice; 30 mg/kg, at 9 h) was ~74.54%, the Blood glucose concentration (STZ-diabetic mice; 10 mg/kg of bw per os, 0h) was 20.5 ± 7.1 mM and the “% Variation of glycemia” value (STZ-diabetic mice; 10 mg/kg of bw per os, 1.5h) was “(−36.10) %”. The Blood glucose concentration (STZ-diabetic mice; 10 mg/kg of bw per os, 1.5h) was 13.1 ± 6.4 mM, the “% Variation of glycemia” value (STZ-diabetic mice; 10 mg/kg of bw per os, 3h) was “(−47.81) %” and the Blood glucose concentration (STZ-diabetic mice; 10 mg/kg of bw per os, 3h) was 10.7 ± 5.7 mM. For the same molecule, the “% Variation of glycemia” value (STZ-diabetic mice; 10 mg/kg of bw per os, 5h) was “(−72.68) %”, the Blood glucose concentration (STZ-diabetic mice; 10 mg/kg of bw per os, 5h) was 5.6 ± 3.1 mM and the “% Variation of glycemia” value (STZ-diabetic mice; 10 mg/kg of bw per os, 7h) was “(−73.66) %”. For the same molecule, the Blood glucose concentration (STZ-diabetic mice; 10 mg/kg of bw per os, 7h) was 5.4 ± 3.4 mM, the “% Variation of glycemia” value (STZ-diabetic mice; 10 mg/kg of bw per os, 9h) was “(−72.20) %” and the Blood glucose concentration (STZ-diabetic mice; 10 mg/kg of bw per os, 9h) was 5.7 ± 3.1 mM. For the same molecule, the Blood glucose concentration (STZ-diabetic mice; 30 mg/kg of bw per os, 0h) was 21.6 ± 4.4 mM, the “% Variation of glycemia” value (STZ-diabetic mice; 30 mg/kg of bw per os, 1.5h) was “(−44.44) %” and the Blood glucose concentration (STZ-diabetic mice; 30 mg/kg of bw per os, 1.5h) was 12.0 ± 3.7 mM. For the same molecule, the “% Variation of glycemia” value (STZ-diabetic mice; 30 mg/kg of bw per os, 3h) was “(−51.39) %”, the Blood glucose concentration (STZ-diabetic mice; 30 mg/kg of bw per os, 3h) was 10.5 ± 5.1 mM and the “% Variation of glycemia” value (STZ-diabetic mice; 30 mg/kg of bw per os, 5h) was “(−70.83) %”. For the same molecule, the Blood glucose concentration (STZ-diabetic mice; 30 mg/kg of bw per os, 5h) was 6.3 ± 4.3 mM, the “% Variation of glycemia” value (STZ-diabetic mice; 30 mg/kg of bw per os, 7h) was “(−73.61) %” and the Blood glucose concentration (STZ-diabetic mice; 30 mg/kg of bw per os, 7h) was 5.7 ± 6.7 mM. The “% Variation of glycemia” value (STZ-diabetic mice; 30 mg/kg of bw per os, 9h) was “(−74.54) %”, the Blood glucose concentration (STZ-diabetic mice; 30 mg/kg of bw per os, 9h) was 5.5 ± 5.2 mM and the Blood glucose concentration (STZ-diabetic mice; 100 mg/kg of bw per os, 0h) was 20.3 ± 4.4 mM. For the same molecule, the “% Variation of glycemia” value (STZ-diabetic mice; 100 mg/kg of bw per os, 1.5h) was “(−25.62) %”, the Blood glucose concentration (STZ-diabetic mice; 100 mg/kg of bw per os, 1.5h) was 15.1 ± 5.0 mM and the “% Variation of glycemia” value (STZ-diabetic mice; 100 mg/kg of bw per os, 3h) was “(−48.28) %”. For the same molecule, the Blood glucose concentration (STZ-diabetic mice; 100 mg/kg of bw per os, 3h) was 10.5 ± 4.9 mM, the “% Variation of glycemia” value (STZ-diabetic mice; 100 mg/kg of bw per os, 5h) was “(−64.53) %” and the Blood glucose concentration (STZ-diabetic mice; 100 mg/kg of bw per os, 5h) was 7.2 ± 2.6 mM. For the same molecule, the “% Variation of glycemia” value (STZ-diabetic mice; 100 mg/kg of bw per os, 7h) was “(−64.53) %”, the Blood glucose concentration (STZ-diabetic mice; 100 mg/kg of bw per os, 7h) was 7.2 ± 3.9 mM and the “% Variation of glycemia” value (STZ-diabetic mice; 100 mg/kg of bw per os, 9h) was “(−68.47) %”. The Blood glucose concentration (STZ-diabetic mice; 100 mg/kg of bw per os, 9h) was 6.4 ± 2.0 mM, the “α-glucosidase inhibitory activity (in words)” value (α-Glucosidase; in vitro) was “moderate to excellent inhibitory activity” and the IC50 (α-Glucosidase; mean ± SD (n = 3), read-out: α-Glucosidase inhibitory activity IC50 Value) was 10.8 ± 0.63 µM.
